Patent US20260070945A1, “MACROCYCLIC IMMUNOMODULATORS” (Bristol-Myers Squibb Company, priority 2022, published 2026)
*1 amine or outer side, *2 acyl side, *3 side chain or, on linkers, in order; H or OH if unused. Where a SMILES comes first, the peptide text is derived from it. Bridges are numbered along the chain shown (N, C = ends). [ ]: non-standard residue; d: D form. The star is where a group is joined. ξ: configuration not given here. X7 = NC[C@H](NC(=O)CNCCNCCN*)C(=O)NCCCCCCCCCCC(=O)O; Phe(3-CF3) = N[C@@H](Cc1cccc(C(F)(F)F)c1)C(=O)O; Phe(4-CF3) = N[C@@H](Cc1ccc(C(F)(F)F)cc1)C(=O)O; Phe(4-COOH) = N[C@@H](Cc1ccc(C(=O)O)cc1)C(=O)O; Bip = N[C@@H](Cc1ccc(-c2ccccc2)cc1)C(=O)O; Phe(4-CN) = N#Cc1ccc(C[C@H](N)C(=O)O)cc1; NH(CH2)14COOH = O=C(O)CCCCCCCCCCCCCCN*; Phe(3-Me) = Cc1cccc(C[C@H](N)C(=O)O)c1; Abu(3S-NH2) = C[C@H](N)[C@H](N)C(=O)O; βAsp = O=C(O)[C@H](CC(=O)[*:2])N[*:1]; NH(CH2)12COOH = O=C(O)CCCCCCCCCCCCN*; Val(3-OH) = CC(C)(O)[C@H](N)C(=O)O; 4Pal = N[C@@H](Cc1ccncc1)C(=O)O; Cha = N[C@@H](CC1CCCCC1)C(=O)O; Thr(3ξ) = CC(O)[C@H](N)C(=O)O; 12Ado = NCCCCCCCCCCCC(=O)O; hSer = N[C@@H](CCO)C(=O)O; Carboxymethyl = O=C(O)C*; NMeA = CN[C@@H](C)C(=O)O; Orn = NCCC[C@H](N)C(=O)O; Aun = NCCCCCCCCCCC(=O)O; Dab = NCC[C@H](N)C(=O)O; Dap = NC[C@H](N)C(=O)O; AEEA = NCCOCCOCC(=O)O; Propargyl = C#CC*; Sar = CNCC(=O)O

Each molecule was assayed against T1, PD-1/PD-L1 interaction (PE-labeled human PD-L1-Ig binding to Jurkat cell line over-expressing human PD-1) (Homo sapiens, UniProt Q15116) (assay: Jurkat-PD-1 Cell Binding High-Content Screening Assay (CBA)). Conditions: Jurkat-hPD-1 cells, PE-labeled PD-L1-Ig 20 nM final; read-out: Jurkat HPD1 PDL1 IC50.
T1 construct: expressed in transfected cells; host or cells: Jurkat
T1 sequence (Q15116 25-288): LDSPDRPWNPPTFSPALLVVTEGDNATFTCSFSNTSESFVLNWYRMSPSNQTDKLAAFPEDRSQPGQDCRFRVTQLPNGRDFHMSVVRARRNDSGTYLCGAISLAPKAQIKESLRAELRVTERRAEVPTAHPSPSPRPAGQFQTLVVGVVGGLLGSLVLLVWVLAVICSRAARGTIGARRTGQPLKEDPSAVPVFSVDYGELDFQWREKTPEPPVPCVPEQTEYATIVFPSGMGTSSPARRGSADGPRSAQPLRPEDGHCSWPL
Summary of the method: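 Cells 8×10^3/well, DMEM + 10% FCS; cpd 2 h, 37 °C; PE–PD-L1-Ig 20 nM final, 1 h; PFA fix + Hoechst 33342, 3× dPBS wash; high-content imager.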

How did the IC50 turn out when `Cc1cccc(C[C@@H]2NC(=O)[C@H](CC(=O)O)NC(=O)[C@H](Cc3ccc(OCC(=O)O)cc3)NC(=O)[C@H](CCCNC(=N)N)NC(=O)CSC[C@@H](C(=O)N[C@@H](CCN)C(=O)NCCCCCCCCCCC(=O)O)NC(=O)[C@H](CCO)NC(=O)[C@H](C(C)C)NC(=O)[C@H](CC3CCCCC3)NC(=O)[C@H](CCN)NC(=O)[C@@H](CC(C)C)NC(=O)[C@H](C)N(C)C(=O)[C@H](Cc3ccc(OCC(=O)O)cc3)NC(=O)[C@H](Cc3ccc(-c4ccccc4)cc3)NC(=O)[C@H](Cc3ccc(C(=O)O)cc3)NC2=O)c1` [Example 2350] ({CH2CO}-RY(Carboxymethyl)D[Phe(3-Me)][Phe(4-COOH)][Bip]Y(Carboxymethyl)[NMeA][dL][Dab][Cha]V[hSer]C[Dab][Aun]-OH; thioether N-14) was run?
Its IC50 is 5.6 nM.

How did the IC50 turn out when `Cc1cccc(C[C@@H]2NC(=O)[C@H](CC(=O)O)NC(=O)[C@H](Cc3ccc(C(=O)O)cc3)NC(=O)[C@H](Cc3ccc(C#N)cc3)NC(=O)CSC[C@@H](C(=O)N[C@@H](CCN)C(=O)NCCCCCCCCCCC(=O)O)NC(=O)[C@H](CO)NC(=O)[C@H](C(C)(C)O)NC(=O)[C@H](CC3CCCCC3)NC(=O)[C@H](CCN)NC(=O)[C@@H](CC(C)C)NC(=O)[C@H](C)N(C)C(=O)[C@H](Cc3ccc(OCC(=O)O)cc3)NC(=O)[C@H](Cc3ccc(-c4ccccc4)cc3)NC(=O)[C@H](Cc3ccc(OCC(=O)O)cc3)NC2=O)c1` [Example 1002] ({CH2CO}-[Phe(4-CN)][Phe(4-COOH)]D[Phe(3-Me)]Y(Carboxymethyl)[Bip]Y(Carboxymethyl)[NMeA][dL][Dab][Cha][Val(3-OH)]SC[Dab][Aun]-OH; thioether N-14) was run?
Its IC50 is 11 nM.

For `Cc1cccc(C[C@@H]2NC(=O)[C@H](CC(=O)O)NC(=O)[C@H](Cc3ccc(OCC(=O)O)cc3)NC(=O)[C@H](CN)NC(=O)CSC[C@@H](C(=O)NCCNCCNCC(=O)N[C@@H](CN)C(=O)NCCCCCCCCCCC(=O)O)NC(=O)[C@H](CO)NC(=O)[C@H](C(C)C)NC(=O)[C@H](CC(C)C)NC(=O)[C@H](CC(N)=O)NC(=O)[C@@H](CC(C)C)NC(=O)[C@H](C)N(C)C(=O)[C@H](C(C)C)NC(=O)[C@H](Cc3ccc(-c4ccccc4)cc3)NC(=O)[C@H](CC(C)C)NC2=O)c1` [Example 1062] ({CH2CO}-[Dap]Y(Carboxymethyl)D[Phe(3-Me)]L[Bip]V[NMeA][dL]NLVSC-X7; thioether N-14), which IC50 is on record?
Its IC50 is 26.9 nM.

With `CC(=O)NCCCC[C@@H]1NC(=O)[C@H](Cc2ccc(-c3ccccc3)cc2)NC(=O)[C@H](C(C)C)NC(=O)[C@H](Cc2c[nH]c3ccccc23)NC(=O)[C@H](CC(=O)O)NC(=O)[C@H](Cc2ccc(OCC(=O)O)cc2)NC(=O)[C@H](CN)NC(=O)CSC[C@@H](C(=O)N[C@@H](CCCN)C(=O)N[C@@H](CO)C(=O)NCCCCCCCCCCCC(=O)O)NC(=O)[C@H](C(C)O)NC(=O)[C@H](C(C)C)NC(=O)[C@H](CC2CCCCC2)NC(=O)[C@H](CCN)NC(=O)[C@@H](CC(C)C)NC(=O)[C@H](C)N(C)C1=O` (stereo partly drawn) [Example 2407] ({CH2CO}-[Dap]Y(Carboxymethyl)DWV[Bip]K(Ac)[NMeA][dL][Dab][Cha]V[Thr(3ξ)]C[Orn]S[12Ado]-OH; thioether N-14) as the molecule, how does the IC50 read?
The IC50 was 66.1 nM.

Which IC50 does the source give for `CC(C)C[C@H]1NC(=O)[C@H](C)N(C)C(=O)[C@H](Cc2ccc(C(=O)O)cc2)NC(=O)[C@H](Cc2ccc(-c3ccccc3)cc2)NC(=O)[C@H](Cc2ccc(C(=O)O)cc2)NC(=O)[C@H](Cc2cccc(C(F)(F)F)c2)NC(=O)[C@H](CC(=O)O)NC(=O)[C@H](Cc2ccc(OCC(=O)O)cc2)NC(=O)[C@H]([C@H](C)N)NC(=O)CSC[C@@H](C(=O)N[C@@H](CCN)C(=O)NCCCCCCCCCCCCC(=O)O)NC(=O)[C@H](CCC(=O)O)NC(=O)[C@H](C(C)C)NC(=O)[C@H](CC2CCCCC2)NC(=O)[C@H](CCN)NC1=O` [Example 1199] ({CH2CO}-[Abu(3S-NH2)]Y(Carboxymethyl)D[Phe(3-CF3)][Phe(4-COOH)][Bip][Phe(4-COOH)][NMeA][dL][Dab][Cha]VEC[Dab]-{NH(CH2)12COOH}; thioether N-14) here?
The IC50 was 18 nM.

With `Cc1cccc(C[C@@H]2NC(=O)[C@H](CC(=O)O)NC(=O)[C@H](Cc3c[nH]cn3)NC(=O)[C@H](Cc3ccc(OCC(=O)O)cc3)NC(=O)CSC[C@@H](C(=O)NCCCCCCCCCCC(=O)O)NC(=O)[C@H](CO)NC(=O)[C@H](C(C)C)NC(=O)[C@H](CC3CCCCC3)NC(=O)[C@H](CCN)NC(=O)[C@@H](CC(C)C)NC(=O)[C@H](C)N(C)C(=O)[C@H](Cc3ccc(OCC(=O)O)cc3)NC(=O)[C@H](Cc3ccc(-c4ccccc4)cc3)NC(=O)[C@H](CC(C)C)NC2=O)c1` [Example 2252] ({CH2CO}-Y(Carboxymethyl)HD[Phe(3-Me)]L[Bip]Y(Carboxymethyl)[NMeA][dL][Dab][Cha]VSC[Aun]-OH; thioether N-14) as the molecule, how does the IC50 read?
The IC50 was 127 nM.

How did the IC50 turn out when `CC(C)[C@@H]1NC(=O)[C@H](CC2CCCCC2)NC(=O)[C@H](CCN)NC(=O)CN(C)C(=O)[C@H](C)N(C)C(=O)[C@H](C(C)C)NC(=O)[C@H](Cc2ccc(-c3ccccc3)cc2)NC(=O)[C@H](C(C)C)NC(=O)[C@H](Cc2c[nH]c3ccccc23)NC(=O)[C@H](CC(=O)O)NC(=O)[C@H](Cc2ccncc2)NC(=O)[C@H](Cc2ccc(OCC(=O)O)cc2)NC(=O)CSC[C@@H](C(=O)N[C@@H](CCCCN)C(=O)NCCOCCOCC(=O)NCCCCCCCCCCC(=O)O)NC(=O)[C@H](CO)NC1=O` [Example 2102] ({CH2CO}-Y(Carboxymethyl)[4Pal]DWV[Bip]V[NMeA][Sar][Dab][Cha]VSCK[AEEA][Aun]-OH; thioether N-14) was run?
Its IC50 is 337 nM.

Which IC50 does the source give for `Cc1cccc(C[C@@H]2NC(=O)[C@H](CC(=O)O)NC(=O)[C@H](Cc3ccc(C(=O)O)cc3)NC(=O)[C@H](Cc3ccc(OCC(=O)O)cc3)NC(=O)CSC[C@@H](C(=O)NCC(=O)N[C@@H](CC(=O)O)C(=O)NCCOCCOCC(=O)N[C@@H](CC(=O)NCCOCCOCC(=O)NCCCCCCCCCCC(=O)O)C(=O)O)NC(=O)[C@H](CO)NC(=O)[C@H](C(C)C)NC(=O)[C@H](CC(C)C)NC(=O)[C@H](CC(N)=O)NC(=O)[C@@H](CC(C)C)NC(=O)[C@H](C)N(C)C(=O)[C@H](C(C)C)NC(=O)[C@H](Cc3ccc(-c4ccccc4)cc3)NC(=O)[C@H](CC(C)C)NC2=O)c1` [Example 1022] ({CH2CO}-Y(Carboxymethyl)[Phe(4-COOH)]D[Phe(3-Me)]L[Bip]V[NMeA][dL]NLVSCGD[AEEA][βAsp][AEEA][Aun]-OH; thioether N-14) here?
Its IC50 is 76.6 nM.

With `C#CCOC[C@@H]1NC(=O)[C@H](C(C)C)NC(=O)[C@H](CC2CCCCC2)NC(=O)[C@H](CCN)NC(=O)[C@@H](CC(C)C)NC(=O)[C@H](C)N(C)C(=O)[C@H](Cc2ccc(OCC(=O)O)cc2)NC(=O)[C@H](Cc2ccc(-c3ccccc3)cc2)NC(=O)[C@H](Cc2ccc(OCC(=O)O)cc2)NC(=O)[C@H](Cc2c[nH]c3ccccc23)NC(=O)[C@H](CC(=O)O)NC(=O)[C@H](Cc2ccncc2)NC(=O)[C@H](Cc2ccc(OCC(=O)O)cc2)NC(=O)CSC[C@@H](C(=O)N[C@@H](CCN)C(=O)NCCOCCOCC(=O)NCCCCCCCCCCC(=O)O)NC1=O` [Example 1103] ({CH2CO}-Y(Carboxymethyl)[4Pal]DWY(Carboxymethyl)[Bip]Y(Carboxymethyl)[NMeA][dL][Dab][Cha]VS(Propargyl)C[Dab][AEEA][Aun]-OH; thioether N-14) as the molecule, how does the IC50 read?
The IC50 was 19 nM.

With `CC(=O)NCCCC[C@@H]1NC(=O)[C@H](C(C)C)NC(=O)[C@H](CC2CCCCC2)NC(=O)[C@H](CCN)NC(=O)[C@@H](CC(C)C)NC(=O)[C@H](C)N(C)C(=O)[C@H](C(C)C)NC(=O)[C@H](Cc2ccc(-c3ccccc3)cc2)NC(=O)[C@H](C(C)C)NC(=O)[C@H](Cc2cccc(C)c2)NC(=O)[C@H](CC(=O)O)NC(=O)[C@H](Cc2ccc(OCC(=O)O)cc2)NC(=O)[C@H](C(C)O)NC(=O)CSC[C@@H](C(=O)N(C)CC(=O)NCCOCCOCC(=O)NCCCCCCCCCCC(=O)O)NC1=O` (stereo partly drawn) [Example 2304] ({CH2CO}-[Thr(3ξ)]Y(Carboxymethyl)D[Phe(3-Me)]V[Bip]V[NMeA][dL][Dab][Cha]VK(Ac)C[Sar][AEEA][Aun]-OH; thioether N-14) as the molecule, how does the IC50 read?
The IC50 was 31.3 nM.

Same assay, conditions: PE-labeled PD-L1-Ig 20 nM final, Jurkat-hPD-1 cells; read-out: Jurkat HPD1 PDL1 IC50

`CC(=O)NCCCC[C@@H]1NC(=O)[C@H](C(C)(C)O)NC(=O)[C@H](CC2CCCCC2)NC(=O)[C@H](CCN)NC(=O)[C@@H](CC(C)C)NC(=O)[C@H](C)N(C)C(=O)[C@H](CCC(N)=O)NC(=O)[C@H](Cc2ccc(-c3ccccc3)cc2)NC(=O)[C@H](Cc2ccc(C(=O)O)cc2)NC(=O)[C@H](Cc2cccc(C(F)(F)F)c2)NC(=O)[C@H](CC(=O)O)NC(=O)[C@H](Cc2ccc(OCC(=O)O)cc2)NC(=O)[C@H](Cc2ccc(C(F)(F)F)cc2)NC(=O)CSC[C@@H](C(=O)N[C@@H](CCN)C(=O)NCCOCCOCC(=O)NCCOCCOCC(=O)NCCCCCCCCCCCCCCC(=O)O)NC1=O` [Example 2610] ({CH2CO}-[Phe(4-CF3)]Y(Carboxymethyl)D[Phe(3-CF3)][Phe(4-COOH)][Bip]Q[NMeA][dL][Dab][Cha][Val(3-OH)]K(Ac)C[Dab][AEEA][AEEA]-{NH(CH2)14COOH}; thioether N-14) was tested. Which IC50 did it give?
Its IC50 is 350 nM.

`Cc1cccc(C[C@@H]2NC(=O)[C@H](CC(=O)O)NC(=O)[C@H](Cc3ccc(C(=O)O)cc3)NC(=O)[C@H](C(C)O)NC(=O)CSC[C@@H](C(=O)N[C@@H](CCN)C(=O)NCCCCCCCCCCCCC(=O)O)NC(=O)[C@H](CO)NC(=O)[C@H](C(C)(C)O)NC(=O)[C@H](CC3CCCCC3)NC(=O)[C@H](CCN)NC(=O)[C@@H](CC(C)C)NC(=O)[C@H](C)N(C)C(=O)[C@H](CCCNC(=N)N)NC(=O)[C@H](Cc3ccc(-c4ccccc4)cc3)NC(=O)[C@H](Cc3ccc(C(=O)O)cc3)NC2=O)c1` (stereo partly drawn) [Example 2644] ({CH2CO}-[Thr(3ξ)][Phe(4-COOH)]D[Phe(3-Me)][Phe(4-COOH)][Bip]R[NMeA][dL][Dab][Cha][Val(3-OH)]SC[Dab]-{NH(CH2)12COOH}; thioether N-14) was tested. Which IC50 did it give?
The IC50 was 16.6 nM.
